Data as given in patent US4895937A, “5-ioso-2-pyrimidinone nucleoside” (The Research Foundation of State University of New York, priority 1988, dated 1990).

Legend:
[1] = system: HSV-1; experiment: Viral inhibition, HSV-1 (Example 7, method of Example 5); format: cell-based, herpes simplex type 1; conditions: Human alphaherpesvirus 1
Experimental: (§1) In accordance with the present invention, 1-(2-Deoxy-β-D-ribofuranosyl)-5-(methylmercapto)-2-pyrimidinone is prepared essentially in accordance with the procedure set forth in "Snythesis and Antiviral Activity of 1-(2-Deoxy-β-D-ribofuranosyl)-5-(methylmercapto)-2-pyrimidinone" by Schroeder and Bardos and Cheng, Volume 24, page 109, January 1981. HeLa cells were infected in 1640 RPMI medium with herpes simplex type 1 (HSV-1) and independently with herpes simplex type 2 (HSV-2) virus at a multiplicity of 5 to 10 plaque forming units per cell. The composition of 1640 RPMI medium is reported in "Biological Activity of 5 Ethyl, 5 Propyl, and 5 Vinyl 2'-Deoxyuridine" by Cheng et al published in Antimicrobial Agents and Chemotherapy, Volume 10, beginning at page 119 (1976). 1640 RPMI medium is commercially available from Gibco Company, Grand Island, N.Y. After 1 hour, virus absorption, the drugs were added. Resulting cultures were analyzed for virus titer at 24 hours post infection a described in the procedure set forth in "Biological Activity of 5-Ethyl, 5-Propyl and 5-Vinyl 2'-uridine" by Cheng et al. The results are set forth in Table 2. The numbers set forth in Table 2 show the number of plaque forming units in the control which contained no methylmercapto compound and the number of units at concentrations of 100, 200 and 400 micromoles of the methylmercapto compound. The results clearly indicate substantial decrease in the number of plaque forming units in the presence of 1-(2-Deoxy-β-D-ribofuranosyl)-5-(methylmercapto)-2-pyrimidinone.
(§2) The above described methyl compound was tested for viral inhibition substantially in accordance with the method of Example 5 except that the concentrations were 50 and 100 micromolar.

[2] = system: HSV-2; experiment: Viral inhibition, HSV-2 (Example 7, method of Example 5); format: cell-based, herpes simplex type 2; conditions: Human alphaherpesvirus 2
Experimental: as §1, §2

[3] = system: murine leukemia L 1210; conditions: cited from earlier work
[4] = system: virus; conditions: literature; cited from earlier work
[5] = system: HSV-1 (CLl0l); experiment: Antiherpes activity, HSV-1 (CLl0l) (Example 10); format: cell-based
Experimental: (§3) IPdR and 5-bromo-2-pyrimidinone-2-deoxyribonucleoside (BrPdR) were tested for antiherpes activity according to procedures described by Cheng, Y.-C., et al. Antimicrob. Agents Chemother (1976) 10, 119.

[6] = system: PFA-resistant strains; experiment: Antiherpes activity, PFA-resistant strain (Example 10); format: cell-based; conditions: 5 μM; read-out: plaque-forming units as % of control
Experimental: as §3

[7] = system: ACG (Tr7), acyclovir resistant strain of HSV1; experiment: Antiherpes activity, acyclovir resistant strain of HSV1 (Tr7) (Example 10); format: cell-based, HSV-1; conditions: Human alphaherpesvirus 1, read-out: plaque-forming units as % of control
Experimental: as §3

[8] = system: BVdU resistant strain of HSV-1; experiment: Antiherpes activity, BVdU resistant strain (Example 10); format: cell-based; conditions: Human alphaherpesvirus 1, read-out: plaque-forming units as % of control
Experimental: as §3

[9] = system: ACG (S1), acyclovir resistant strain of HSV1; experiment: Antiherpes activity, acyclovir resistant strain of HSV1 (S1) (Example 10); format: cell-based, HSV-1; conditions: Human alphaherpesvirus 1, read-out: plaque-forming units as % of control
Experimental: as §3

[10] = system: HSV-1 (KOS); experiment: Antiherpes activity, HSV-1 (KOS) (Example 10); format: cell-based
Experimental: as §3

[11] = system: HSV-2 (333); experiment: Antiherpes activity, HSV-2 (333) (Example 10); format: cell-based
Experimental: as §3

[12] = system: HSV-2 (CEU-G); experiment: Antiherpes activity, HSV-2 (CEU-G) (Example 10); format: cell-based; conditions: Human alphaherpesvirus 2, read-out: plaque-forming units as % of control
Experimental: as §3

[13] = system: HSV-1 and HSV-2 strains (herpes virus group); experiment: Antiherpes activity, overall statement; format: cell-based
Experimental: as §3

[14] = system: HSV-2 (Strain 333); experiment: Antiviral activity in HSV-2 infected mice by various routes (Example 9); format: in vivo, Swiss-Webster female mice; conditions: for % ILS: excluding 45 day survivors
Experimental: The drugs were administered once a day for five days or twice daily (12 hour intervals) for 2.5 days beginning 24 hours postinfection. Mean body weight determinations of drug treated and control animals were made during the treatment period as an indicator of sublethal toxicity. Deaths were recorded through day 45.

[15] = 50 micromolar, vs untreated control
[16] = Human alphaherpesvirus 1, 5 μM, read-out: plaque-forming units as % of control
[17] = Human alphaherpesvirus 1, read-out: plaque-forming units as % of control
[18] = 40 mg/kg oral, 2 × 21/2, 72 hours after implant
[19] = 40 mg/kg oral, 2 × 21/2, innoculation dose 1 × 10^6 PFU

Cc1cnc(=O)n(C2C[C@H](O)[C@@H](CO)O2)c1 (stereo in doubt) [methyl compound, 1-(2-Deoxy-α-D-ribofuranosyl)-5-(methyl)-2-pyrimidinone]
inhibition at 50 µM [1, 15]: 95.5% | inhibition at 100 µM ([1]; 100 micromolar): 99% | inhibition at 50 µM [2, 15]: 87.9% | inhibition at 100 µM ([2]; 100 micromolar): 98.3%

O=c1ncc(Br)cn1[C@@H]1O[C@H](CO)[C@@H](O)[C@H]1O [5-bromo]
anti-tumor activity [3]: lack of anti-tumor activity

O=c1ncc(Cl)cn1[C@@H]1O[C@H](CO)[C@@H](O)[C@H]1O [5-chloro]
anti-tumor activity [3]: lack of anti-tumor activity

O=c1ncc(F)cn1[C@@H]1O[C@H](CO)[C@@H](O)[C@H]1O [5-fluoro riboside, 5-fluoro-pyrimidin-2-one riboside]
anti-tumor activity [3]: only the 5-fluoro was active | anti-viral activity [4]: possessing anti-viral activity

Nc1nc2c(ncn2COCCO)c(=O)[nH]1 [ACG, acyclovir, reference compound]
activity at 5 µM [5, 16]: 4% | activity at 5 µM [6]: 100% | activity at 5 µM [7]: 85% | activity at 5 µM [8]: 0.7% | activity at 5 µM [9]: 100% | activity at 5 µM [10, 16]: 6.5%

O=c1[nH]c(=O)n([C@H]2C[C@H](O)[C@@H](CO)O2)cc1/C=C/Br [BVdU, (bromovinyl) deoxyuridine, reference compound]
activity at 30 µM [5, 17]: 0.4% | activity at 30 µM ([11]; Human alphaherpesvirus 2, read-out: plaque-forming units as % of control): 1.7% | activity at 30 µM [7]: 0.8% | activity at 30 µM [8]: 52% | activity at 30 µM [9]: 3.7% | activity at 30 µM [10, 17]: 0.1%

O=c1ncc(Br)cn1[C@H]1C[C@H](O)[C@@H](CO)O1 [BrPdR, 1-(2-Deoxy-β-D-ribofuranosyl)-5-(bromo)-2-pyrimidinone]
activity at 100 µM [12]: 7.1% | activity at 100 µM ([11]; Human alphaherpesvirus 2, 100 μM, read-out: plaque-forming units as % of control): 4.5% | activity at 100 µM ([10]; Human alphaherpesvirus 1, 100 μM, read-out: plaque-forming units as % of control): 0.6% | antiherpes / anti-viral activity (words) [13]: significant antiherpes activities

Nc1nc2c(ncn2COC(CO)CO)c(=O)[nH]1 [DHPG, Dihydroxy propoxymethyl guanine, reference compound]
Survivors/Total ([14]; 40 mg/kg oral, 2 × 21/2): 20/20 | percent survival ([14]; 40 mg/kg oral, 2 × 21/2): 100% | Survivors/Total [14, 18]: 5/5 | percent survival [14, 18]: 100% | Mean Survival Time ([14]; 40 mg/kg oral, 2 × 21/2, control 9.8 ± 1.3): > 45 days | Mean Survival Time ([14]; 40 mg/kg oral, 2 × 21/2, control 10.6 ± 2.1): > 45 days | Survivors/Total [14, 19]: 2/5 | percent survival [14, 19]: 40% | Mean Survival Time (days), of the mice that died ([14]; 40 mg/kg oral, 2 × 21/2, innoculation dose 1 × 10^6 PFU, control 10.0 ± 1.2): 20.0 ± 7.0 days | % ILS [14, 19]: 200%

C#Cc1cnc(=O)n([C@H]2C[C@H](O)[C@@H](CO)O2)c1 [EPdR]
Survivors/Total ([14]; 100 mg/kg IP, 1 × 5): 1/5 | percent survival ([14]; 100 mg/kg IP, 1 × 5): 20% | Mean Survival Time (days), of the mice that died ([14]; 100 mg/kg IP, 1 × 5, control 9.6 ± 1.1): 9.0 ± 0.8 days | % ILS ([14]; 100 mg/kg IP, 1 × 5): 94%
